{"source": "patent US20180200257A1", "about": "“METHODS FOR THE TREATMENT OF INFLAMMATORY DISORDERS” (Galapagos NV, priority 2015, published 2018)", "test_system": "subjects with moderately to severely active RA who have an inadequate response to methotrexate (MTX)", "assay": "Study 2 (monotherapy) - Subject VAS mean changes (ACR patient assessment)", "assay_type": "in vivo, human", "details": "LOCF, 12 weeks results", "description": "The scale is 100 mm, the decrease in mm is shown. […] (dotted line), 100 mg q.d. (dashed line) or 200 mg q.d. (dark solid line). The results shown in the figures are calculated using Last-Observation-Carried-Forward (LOCF), which handles missing data by assigning the value recorded at the patient's last visit to all subsequent missed visits.\nRandomized, double-blind, placebo-controlled, multicenter, phase IIb dose finding study of Compound 1 (dosed as a [Compound 1:HCl:3H2O]) administered for 24 weeks as monotherapy to subjects with moderately to severely active rheumatoid arthritis who have an inadequate response to methotrexate alone\nDouble-blind, placebo-controlled, monotherapy study in subjects with moderately to severely active RA who have an inadequate response to methotrexate (MTX) (oral or parenteral).\n280 subjects randomized to one of 3 doses of Compound 1 (dosed as a [Compound 1:HCl:3H2O]) or to placebo, given once daily (q.d.).\nTwelve weeks of treatment with Compound 1 (dosed as a [Compound 1:HCl:3H2O]) at 50 mg, 100 mg, or 200 mg q.d.; or placebo. At Week 12, all subjects on placebo and the subjects on the 50 mg dose who have not achieved 20% improvement in swollen joint count (SJC66) and tender joint count (TJC68) will be assigned to 100 mg q.d. in a blinded fashion and will continue treatment until Week 24. Subjects in the other groups will maintain their randomized treatment until Week 24.\nFirstly, the patient is asked to make a vertical mark on a 100 mm Visual Analog Scale (VAS) corresponding to their general health or global disease activity on a touch screen to measure the VAS value, which is used in the formula below.\nThe American College of Rheumatology (ACR) composite score, which evaluates clinical improvement relative to an initial assessment, is a commonly accepted efficacy end point for clinical trials in patients with rheumatoid arthritis. The ACR score correspond to a percentage improvement in pre-set parameters, and therefore measures the evolution of the disease in a patient. For example, ACR20 denotes at least 20% improvement in tender and swollen joint counts and in three of the following end points: global assessment by the patient, global assessment by the doctor, C reactive protein (CRP), patient's pain Visual Analogue Scale and Health Assessment Questionnaire Score. The number of swollen joints, ESR and CRP correlate with radiographic progression of joint damage, whereas tender joint counts, as well as global assessments by doctors and patients, and patients' reports of pain, are sensitive to change in clinical outcomes. Physical function, as assessed by the Health Assessment Questionnaire Score, is a potent predictor of the risk of disability in rheumatoid arthritis (Felson and American College of Rheumatology Committee to Reevaluate Improvement Criteria, 2007; Felson et al., 1993)."}
{"smiles": "O=C(Nc1nc2cccc(-c3ccc(CN4CCS(=O)(=O)CC4)cc3)n2n1)C1CC1", "note": "[Compound 1, cyclopropanecarboxylic acid {5-[4-(1,1-dioxo-thiomorpholin-4-ylmethyl)-phenyl]-[1,2,4]triazolo[1,5-a]pyridin-2-yl}-amide]", "values": [{"measurement": "Subject VAS mean changes (ACR patient assessment)", "setting": "50 mg q.d., week 0", "result": 0.0, "unit": "%"}, {"measurement": "Subject VAS mean changes (ACR patient assessment)", "setting": "50 mg q.d., week 1", "result": "−12.3", "unit": "%"}, {"measurement": "Subject VAS mean changes (ACR patient assessment)", "setting": "50 mg q.d., week 2", "result": "−17.3", "unit": "%"}, {"measurement": "Subject VAS mean changes (ACR patient assessment)", "setting": "50 mg q.d., week 4", "result": "−19.3", "unit": "%"}, {"measurement": "Subject VAS mean changes (ACR patient assessment)", "setting": "50 mg q.d., week 8", "result": "−23.6", "unit": "%"}, {"measurement": "Subject VAS mean changes (ACR patient assessment)", "setting": "50 mg q.d., week 12", "result": "−27.4", "unit": "%"}, {"measurement": "Subject VAS mean changes (ACR patient assessment)", "setting": "100 mg q.d., week 0", "result": 0.0, "unit": "%"}, {"measurement": "Subject VAS mean changes (ACR patient assessment)", "setting": "100 mg q.d., week 1", "result": "−12.2", "unit": "%"}, {"measurement": "Subject VAS mean changes (ACR patient assessment)", "setting": "100 mg q.d., week 2", "result": "−17.2", "unit": "%"}, {"measurement": "Subject VAS mean changes (ACR patient assessment)", "setting": "100 mg q.d., week 4", "result": "−21.3", "unit": "%"}, {"measurement": "Subject VAS mean changes (ACR patient assessment)", "setting": "100 mg q.d., week 8", "result": "−29.2", "unit": "%"}, {"measurement": "Subject VAS mean changes (ACR patient assessment)", "setting": "100 mg q.d., week 12", "result": "−29.8", "unit": "%"}, {"measurement": "Subject VAS mean changes (ACR patient assessment)", "setting": "200 mg q.d., week 0", "result": 0.0, "unit": "%"}, {"measurement": "Subject VAS mean changes (ACR patient assessment)", "setting": "200 mg q.d., week 1", "result": "−14.8", "unit": "%"}, {"measurement": "Subject VAS mean changes (ACR patient assessment)", "setting": "200 mg q.d., week 2", "result": "−19.9", "unit": "%"}, {"measurement": "Subject VAS mean changes (ACR patient assessment)", "setting": "200 mg q.d., week 4", "result": "−25.0", "unit": "%"}, {"measurement": "Subject VAS mean changes (ACR patient assessment)", "setting": "200 mg q.d., week 8", "result": "−30.3", "unit": "%"}, {"measurement": "Subject VAS mean changes (ACR patient assessment)", "setting": "200 mg q.d., week 12", "result": "−28.8", "unit": "%"}]}
